pIC50: −log10 of the molar value. Structures can show the parent of a compound that is named as a salt.
molecular target: human H4 (Homo sapiens, UniProt Q9H3N8); assay: Calcium mobilization in CHO cells transfected with human H4 (Assay 1); format: cell-based; details: calcium mobilization induced by 100 nM histamine in CHO-H4 cells; compounds at purity of about 40 to 90%; read-out: Activity Class
Protocol: [Calcium Mobilization in CHO cells transfected with human H4] (Assay1)
A fusion construct consisting of the n-terminal part of H4 and the C-terminal part of the G protein Gα 6 was transfected into CHO cells containing the aequorin-controlled luciferase gene (CHOAQLuci cells). Recombinant clones showing aequorin luminescence after the addition of 1 µM histamine were isolated. Starting with three independent primary cell clones three sets of tertiary clones were generated by two successive rounds of limiting dilution. Analysis of the primary clones as well as each subcloning by limiting dilution was monitored by "clone-pool analysis" comparing H4-transfected to mock-transfected (expression vector without H4 receptor cDNA) clones.
CHO-H4 cells were seeded at 2 x 10^4 cells per well in Biocoat poly-D-Lysine 96 well black/clear plates (BECTON DICKINSON, Franklin Lakes, US) in D-MEM/F12 medium supplemented with 10% FCS and 400 µg/ml Geneticin (Invitrogen GIBCO, Carlsbad, US) and 2 mM butylrate for O/N. The medium was removed and cells were loaded with 1 µM Fluo-3 (Molecular Probes, Eugene, USA) in loading solution (0.1% BSA, 20mM HEPES Hank's Buffer, 1mM probinecid) for 1 h. The loading buffer was removed and exchanged for fresh loading buffer. Cells were pretreated with various concentrations of test compounds and subjected to calcium mobilization measurement induced by 100 nM histamine by using FDSS6000.
Assay results in Assay 1 are shown in Examples and tables of the Examples below. The data corresponds to the compounds as yielded by solid phase synthesis and thus to levels of purity of about 40 to 90%. For practical reasons, the compounds are grouped in four classes of activity as follows: A IC50 20nM < B IC50 100nM C < IC50 500nM D

human H4, sequence (Q9H3N8 whole entry): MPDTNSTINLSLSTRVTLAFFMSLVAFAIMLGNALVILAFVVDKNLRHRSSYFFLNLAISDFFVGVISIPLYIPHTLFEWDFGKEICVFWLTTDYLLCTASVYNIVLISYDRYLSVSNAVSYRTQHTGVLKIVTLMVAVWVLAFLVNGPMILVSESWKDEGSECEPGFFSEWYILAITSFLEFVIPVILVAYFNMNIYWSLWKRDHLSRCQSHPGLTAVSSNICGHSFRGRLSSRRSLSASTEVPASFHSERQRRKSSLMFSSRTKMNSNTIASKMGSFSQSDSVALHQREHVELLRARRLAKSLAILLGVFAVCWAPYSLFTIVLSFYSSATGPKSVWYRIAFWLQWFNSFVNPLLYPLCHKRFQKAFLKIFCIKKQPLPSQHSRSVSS

| SMILES | pIC50 |
| --- | --- |
| CNC1CCN(c2cc(-c3ccccc3)nc(N)n2)C1 (stereo not drawn) [Example 1, 4-[3-(Methylamino)pyrrolidin-1-yl]-6-phenylpyrimidin-2-amine trihydrochloride] | > 7.70 |
| CNC1CCN(c2cc(-c3cccc(C#N)c3)nc(N)n2)C1 (stereo not drawn) [Example 2, 3-{2-Amino-6-[3-(methylamino)pyrrolidin-1-yl]pyrimidin-4-yl}benzonitrile trihydrochloride] | 7.00 to 7.70 |
| Nc1nc(-c2ccccc2)cc(N2CCC(N)C2)n1 (stereo not drawn) [Example 3, 4-(3-aminopyrrolidin-1-yl)-6-phenylpyrimidin-2-amine trihydrochloride] | 7.00 to 7.70 |
| CN[C@@H]1CCN(c2cc(-c3cccc([N+](=O)[O-])c3)nc(N)n2)C1 [Example 6, 4-[(3R)-3-(methylamino)pyrrolidin-1-yl]-6-(3-nitrophenyl)pyrimidin-2-amine trihydrochloride] | > 7.70 |
| CN[C@H]1CCN(c2cc(-c3cccc([N+](=O)[O-])c3)nc(N)n2)C1 [Example 7, 4-[(3 S)-3-(methylamino)pyrrolidin-1-yl]-6-(3-nitrophenyl)pyrimidin-2-amine trihydrochloride] | 6.30 to 7.00 |
| CN[C@H]1CCN(c2cc(-c3ccccc3)nc(N)n2)C1 [Example 8, 4-[(3S)-3-(methylamino)pyrrolidin-1-yl]-6-phenylpyrimidin-2-amine trihydrochloride] | 7.00 to 7.70 |
